# In ChEMBL document CHEMBL1909046, “DrugMatrix in vitro pharmacology data”:
# Columns and labels:
# [1] = target: Aldo-keto reductase family 1 member B1 (Rattus norvegicus, UniProt P07943); test: biochemical; assay type: tissue-based, Lens of camera-type eye;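 note: inhibition of aldose reductase enzyme activity, measured with DL-glyceraldehyde as the substrate; in other assays of this panel Not Active means under 50% inhibition at 10 µM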
# [2] = DRUGMATRIX: beta-Lactamase enzyme inhibition (substrate: Nitrocefin); design: species or system Bacillus cereus; details: Not Active = under 50% inhibition at 10 µM
# [3] = DRUGMATRIX: Calcium Channel Type L, Benzothiazepine radioligand binding (ligand: [3H] Diltiazem); assay type: cell membranes, Rattus norvegicus, Wistar, Brain, Membrane; details: Not Active = under 50% inhibition at 10 µM
# [4] = DRUGMATRIX: Serotonin (5-Hydroxytryptamine) 5-HT3 radioligand binding (ligand: [3H] GR-65630); assay type: cell membranes, Membrane; details: hek293; Not Active = under 50% inhibition at 10 µM
# [5] = target: Melanocortin receptor 3 (Homo sapiens, UniProt P41968); assay type: cell membranes, Membrane; details: hek293; note: in other assays of this panel Not Active means under 50% inhibition at 10 µM
# [6] = target: T1, Angiotensin-converting enzyme (Oryctolagus cuniculus, UniProt P12822); assay type: tissue-based, Lung;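 note: enzymatic inhibition of angiotensin-converting enzyme measured with FAPGG as the substrate; in other assays of this panel Not Active means under 50% inhibition at 10 µM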
# T1 sequence (P12822 whole entry): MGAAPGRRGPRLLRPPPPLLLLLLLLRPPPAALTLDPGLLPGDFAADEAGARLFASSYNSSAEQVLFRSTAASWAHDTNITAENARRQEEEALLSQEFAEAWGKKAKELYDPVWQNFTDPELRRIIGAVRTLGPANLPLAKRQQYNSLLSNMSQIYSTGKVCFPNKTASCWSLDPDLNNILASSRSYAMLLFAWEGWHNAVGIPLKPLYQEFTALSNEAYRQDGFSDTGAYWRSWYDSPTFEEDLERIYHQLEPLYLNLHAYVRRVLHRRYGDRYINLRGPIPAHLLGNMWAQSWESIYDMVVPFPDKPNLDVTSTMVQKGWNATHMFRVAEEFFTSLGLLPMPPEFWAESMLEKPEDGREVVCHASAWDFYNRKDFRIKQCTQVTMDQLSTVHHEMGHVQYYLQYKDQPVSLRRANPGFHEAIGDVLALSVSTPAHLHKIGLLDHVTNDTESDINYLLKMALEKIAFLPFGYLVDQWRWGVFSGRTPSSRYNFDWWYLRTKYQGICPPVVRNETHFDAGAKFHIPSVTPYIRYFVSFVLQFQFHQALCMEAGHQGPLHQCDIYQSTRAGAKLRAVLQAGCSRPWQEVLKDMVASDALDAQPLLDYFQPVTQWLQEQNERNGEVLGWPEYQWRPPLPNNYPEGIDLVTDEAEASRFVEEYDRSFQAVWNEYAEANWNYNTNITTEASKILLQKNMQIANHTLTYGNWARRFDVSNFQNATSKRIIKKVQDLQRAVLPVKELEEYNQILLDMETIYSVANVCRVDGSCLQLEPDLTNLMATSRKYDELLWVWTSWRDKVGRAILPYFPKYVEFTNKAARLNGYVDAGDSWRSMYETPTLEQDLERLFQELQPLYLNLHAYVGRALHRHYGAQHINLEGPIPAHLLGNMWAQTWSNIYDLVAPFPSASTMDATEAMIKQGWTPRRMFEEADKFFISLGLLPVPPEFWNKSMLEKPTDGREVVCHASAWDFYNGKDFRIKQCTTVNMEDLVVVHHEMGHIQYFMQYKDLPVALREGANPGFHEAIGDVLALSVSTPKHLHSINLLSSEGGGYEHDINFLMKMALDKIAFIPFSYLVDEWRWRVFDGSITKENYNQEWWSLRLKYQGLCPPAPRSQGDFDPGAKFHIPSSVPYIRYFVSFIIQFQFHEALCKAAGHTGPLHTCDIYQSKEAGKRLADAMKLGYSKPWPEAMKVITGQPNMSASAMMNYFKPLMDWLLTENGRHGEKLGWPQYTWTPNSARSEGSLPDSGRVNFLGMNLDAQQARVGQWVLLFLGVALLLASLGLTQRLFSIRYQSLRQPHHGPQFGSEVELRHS
# [7] = target: T2, Cathepsin G (Homo sapiens, UniProt P08311); assay type: tissue-based; details: neutrophil;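 note: inhibition of Cathepsin G enzyme activity, tested on an AMC-conjugated peptide substrate; in other assays of this panel Not Active means under 50% inhibition at 10 µM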
# T2 sequence (P08311 whole entry): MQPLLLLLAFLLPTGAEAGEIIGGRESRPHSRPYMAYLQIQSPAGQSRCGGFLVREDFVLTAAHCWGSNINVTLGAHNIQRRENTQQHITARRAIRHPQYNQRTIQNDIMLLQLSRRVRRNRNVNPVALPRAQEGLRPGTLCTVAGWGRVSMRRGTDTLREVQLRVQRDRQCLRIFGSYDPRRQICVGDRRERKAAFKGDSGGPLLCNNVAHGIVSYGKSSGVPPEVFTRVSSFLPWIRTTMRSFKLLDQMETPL
# [8] = target: T3, Cytochrome P450 2A6 (Homo sapiens, UniProt P11509); details: bti-tn-5b1-4; note: in other assays of this panel Not Active means under 50% inhibition at 10 µM
# T3 sequence (P11509 whole entry): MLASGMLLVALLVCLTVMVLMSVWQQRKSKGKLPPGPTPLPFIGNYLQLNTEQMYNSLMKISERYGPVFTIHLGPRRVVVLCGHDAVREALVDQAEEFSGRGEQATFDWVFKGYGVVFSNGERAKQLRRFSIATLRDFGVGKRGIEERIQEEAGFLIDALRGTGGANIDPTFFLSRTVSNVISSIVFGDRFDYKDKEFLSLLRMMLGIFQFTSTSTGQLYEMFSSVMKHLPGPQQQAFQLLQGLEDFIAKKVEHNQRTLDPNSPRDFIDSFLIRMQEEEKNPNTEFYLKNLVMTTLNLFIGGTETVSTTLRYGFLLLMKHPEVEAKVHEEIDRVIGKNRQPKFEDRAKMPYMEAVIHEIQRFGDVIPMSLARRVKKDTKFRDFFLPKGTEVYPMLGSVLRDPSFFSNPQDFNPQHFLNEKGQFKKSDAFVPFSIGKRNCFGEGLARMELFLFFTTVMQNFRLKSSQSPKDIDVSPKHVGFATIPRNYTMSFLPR
# Chain of Melanocortin receptor 3 (P41968 whole entry): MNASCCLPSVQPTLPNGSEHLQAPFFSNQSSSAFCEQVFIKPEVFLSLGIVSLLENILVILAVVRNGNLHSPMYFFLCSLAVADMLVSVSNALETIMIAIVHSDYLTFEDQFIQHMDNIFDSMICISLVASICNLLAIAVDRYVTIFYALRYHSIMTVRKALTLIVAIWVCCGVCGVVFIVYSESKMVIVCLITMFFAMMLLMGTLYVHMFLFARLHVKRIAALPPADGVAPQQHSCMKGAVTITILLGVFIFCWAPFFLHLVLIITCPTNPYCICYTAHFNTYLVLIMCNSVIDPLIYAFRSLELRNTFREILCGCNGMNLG
SMILES,IC50 [1],IC50 [2],Ki [2],IC50 [3],Ki [3],IC50 [4],Ki [4],IC50 [5],IC50 [6],IC50 [7],IC50 [8],Ki [8],IC50 ([3]; read-out: IC50),Ki ([3]; read-out: Ki)
C=C(C)[C@H]1Cc2c(ccc3c2O[C@@H]2COc4cc(OC)c(OC)cc4[C@@H]2C3=O)O1 [ROTENONE],Not Active,Not Active,Not Active,Not Active,Not Active,Not Active,Not Active,Not Active,Not Active,Not Active,Not Active,Not Active,–,–
C#CCN(C)[C@H](C)Cc1ccccc1 [SELEGILINE],Not Active,Not Active,Not Active,Not Active,Not Active,Not Active,Not Active,Not Active,Not Active,Not Active,Not Active,Not Active,–,–
CO[C@H]1C[C@@H]2CC[C@@H](C)[C@@](O)(O2)C(=O)C(=O)N2CCCC[C@H]2C(=O)O[C@H]([C@H](C)C[C@@H]2CC[C@@H](O)[C@H](OC)C2)CC(=O)[C@H](C)/C=C(\C)[C@@H](O)[C@@H](OC)C(=O)[C@H](C)C[C@H](C)/C=C/C=C/C=C/1C [SIROLIMUS],Not Active,Not Active,Not Active,Not Active,Not Active,Not Active,Not Active,Not Active,Not Active,Not Active,Not Active,Not Active,–,–
CN[C@@H]1[C@H](O)[C@H](NC)[C@H]2O[C@@]3(O)C(=O)C[C@@H](C)O[C@H]3O[C@@H]2[C@H]1O [SPECTINOMYCIN],Not Active,Not Active,Not Active,Not Active,Not Active,Not Active,Not Active,Not Active,Not Active,Not Active,Not Active,Not Active,–,–
Nc1ccc(S(=O)(=O)Nc2ncccn2)cc1 [SULFADIAZINE],Not Active,Not Active,Not Active,Not Active,Not Active,Not Active,Not Active,Not Active,Not Active,Not Active,Not Active,Not Active,–,–
COc1ncnc(NS(=O)(=O)c2ccc(N)cc2)c1OC [SULFADOXINE],Not Active,Not Active,Not Active,Not Active,Not Active,Not Active,Not Active,Not Active,Not Active,Not Active,Not Active,Not Active,–,–
Nc1ccc(S(=O)(=O)Nc2nccs2)cc1 [SULFATHIAZOLE],Not Active,Not Active,Not Active,Not Active,Not Active,Not Active,Not Active,Not Active,Not Active,Not Active,Not Active,Not Active,–,–
C[C@]12CC[C@H]3[C@@H](CCC4=CC(=O)CC[C@@]43C)[C@@H]1CC[C@@H]2O [TESTOSTERONE],Not Active,Not Active,Not Active,Not Active,Not Active,Not Active,Not Active,Not Active,Not Active,Not Active,Not Active,Not Active,–,–
CC(C)(C)NC[C@H](O)COc1nsnc1N1CCOCC1 [TIMOLOL],Not Active,Not Active,Not Active,Not Active,Not Active,Not Active,Not Active,Not Active,Not Active,Not Active,Not Active,Not Active,–,–
C[C@@H]1C[C@H]2[C@@H]3CCC4=CC(=O)C=C[C@]4(C)C3=CC[C@]2(C)[C@H]1C(=O)CN1CCN(c2cc(N3CCCC3)nc(N3CCCC3)n2)CC1 [TIRILAZAD],Not Active,Not Active,Not Active,–,–,Not Active,Not Active,Not Active,Not Active,Not Active,Not Active,Not Active,2690 nM,2400 nM
NC[C@H]1O[C@H](O[C@H]2[C@H](O)[C@@H](O[C@H]3O[C@H](CO)[C@@H](O)[C@H](N)[C@H]3O)[C@H](N)C[C@@H]2N)[C@H](N)C[C@@H]1O [TOBRAMYCIN],Not Active,Not Active,Not Active,Not Active,Not Active,Not Active,Not Active,Not Active,Not Active,Not Active,Not Active,Not Active,–,–
O=C(O)C(Cl)(Cl)Cl [TRICHLOROACETIC ACID],Not Active,Not Active,Not Active,Not Active,Not Active,Not Active,Not Active,Not Active,Not Active,Not Active,Not Active,Not Active,–,–
CC(=O)O[C@H]1C[C@@H]2CC[C@@H]3[C@H](CC[C@@]4(C)[C@H]3C[C@H]([N+]3(C)CCCCC3)[C@@H]4OC(C)=O)[C@@]2(C)C[C@@H]1N1CCCCC1.[Br-] [VECURONIUM BROMIDE],Not Active,Not Active,Not Active,Not Active,Not Active,Not Active,Not Active,Not Active,Not Active,Not Active,Not Active,Not Active,–,–
COc1cc(C(=O)NS(=O)(=O)c2ccccc2C)ccc1Cc1cn(C)c2ccc(NC(=O)OC3CCCC3)cc12 [ZAFIRLUKAST],Not Active,Not Active,Not Active,Not Active,Not Active,Not Active,Not Active,Not Active,Not Active,Not Active,Not Active,Not Active,–,–
Cc1cn([C@H]2C[C@H](N=[N+]=[N-])[C@@H](CO)O2)c(=O)[nH]c1=O [ZIDOVUDINE],Not Active,Not Active,Not Active,Not Active,Not Active,Not Active,Not Active,Not Active,Not Active,Not Active,Not Active,Not Active,–,–
